# Measured values reported in US20170127673A1, “COMPOSITIONS AND METHODS OF USE OF BETA-HYDROXY-BETA-METHYLBUTYRATE (HMB) AS AN ANIMAL FEED ADDITIVE” (Metabolic Technologies, Inc., priority 2015, published 2017).
# Marks after values point to notes of the source that are not given here.
# Tests used:
# [1] = after HMB is fed; cited from earlier work
# [2] = system: Salmonella enterica subsp. enterica Serovar Enteritidis (ATCC 13076); test: Salmonella enumeration on HMB-coated, inoculated pet food kibbles (Studies 1-3); format: cell-based
# [3] = healthy young or old adults; cited from earlier work
# [4] = system: Salmonella enterica subsp. enterica Serovar Enteritidis (ATCC 13076); test: Overnight enrichment of subsamples to recover damaged Salmonella (presence/absence); format: cell-based; conditions: for Salmonella growth in enriched samples: Study 1, 0.9 and 1.5%
# Experimental: Enriched samples were then spread plated to XLD, incubated at 37° C. for 24 h, and growth of black colonies typical for Salmonella were noted (presence/absence result, not quantitative).
# From the coated and inoculated samples, 25 g subsamples were collected after the designated number of storage days. The 25 g subsample was mixed with 225 ml of buffered peptone water (BPW; Becton, Dickinson and Company, Franklin Lakes, N.J.) and stomached for 15 seconds to homogenize. The homogenate was serially diluted using BPW and spread plated onto Xylose Lysine Desoxycholate agar (XLD; Becton, Dickinson and Company, Franklin Lakes, N.J.) in duplicate. All inoculated XLD plates were incubated at 37° C. for 24 hours. After incubation, plates were enumerated by counting black colonies, typical for Salmonella. The number of observed colonies was multiplied by the dilution factor to determine the total count in cfu/g. Representative isolates from day 0 were confirmed as Salmonella through serotyping to ensure the recovered counts represent the inoculated culture. Counts for the positive and negative controls were also recorded. In addition, on the first sample date that counts of zero were recovered, the subsample was enriched overnight to allow damaged Salmonella cells to be recovered. Enriched samples were spread plated to XLD, incubated at 37° C. for 24 hours, and growth of black colonies typical for Salmonella were noted (presence/absence result, not quantitative).
# Based on the results from enumeration on day 1, 2, 7 and 14, the subsample was retained and enriched to allow damaged cells to be recovered. Enriched samples were spread plated to XLD.
compound,measurement,setting,value
"CC(C)(O)CC(=O)O [HMB, β-hydroxy-β-methylbutyrate]",Loss of HMB to urine,[1],20-50%
same,Salmonella enumeration (limit of detection),"[2]; Study 1, both treatments (0.9 and 1.5%), day 1",< 100 cfu/g
same,Salmonella enumeration (limit of detection),"[2]; Study 1, both treatments (0.9 and 1.5%), day 2, 7 and 14",< 10 cfu/g
same,Reduction of Salmonella artificially inoculated to the kibble,"[2]; Study 1, coating at 0.9 and 1.5%, 14-day test period",effective
same,Side effects,[3],no side effects
same,Salmonella growth in enriched samples,[4]; day 1 and 2,positive
same,Salmonella growth in enriched samples,[4]; day 7 and 14,negative
calcium β-hydroxy-β-methylbutyrate [CaHMB],Salmonella levels in coated kibbles,"[2]; Study 3, 0.1% (w:w) powder coating, Day 0",7.19±0.04 log10 CFU/g
same,Salmonella levels in coated kibbles,"[2]; Study 3, 0.1% (w:w) powder coating, Day 1",7.11 ± 0.08 log10 CFU/g
same,Salmonella levels in coated kibbles,"[2]; Study 3, 0.1% (w:w) powder coating, Day 2",6.84 ± 0.17 log10 CFU/g
same,Salmonella levels in coated kibbles,"[2]; Study 3, 0.1% (w:w) powder coating, Day 7",3.18 ± 0.03^ log10 CFU/g
same,Salmonella levels in coated kibbles,"[2]; Study 3, 0.1% (w:w) powder coating, Day 14, below limit of detection of 10 CFU/g",0 ± 0^b log10 CFU/g
same,Salmonella levels in coated kibbles,"[2]; Study 3, 0.3% (w:w) powder coating, Day 0",7.17±0.07 log10 CFU/g
same,Salmonella levels in coated kibbles,"[2]; Study 3, 0.3% (w:w) powder coating, Day 1",7.01 ± 0.07 log10 CFU/g
same,Salmonella levels in coated kibbles,"[2]; Study 3, 0.3% (w:w) powder coating, Day 2",6.26 ± 0.03 log10 CFU/g
same,Salmonella levels in coated kibbles,"[2]; Study 3, 0.3% (w:w) powder coating, Day 7",3.17 ± 0.04^ log10 CFU/g
same,Salmonella levels in coated kibbles,"[2]; Study 3, 0.3% (w:w) powder coating, Day 14, below limit of detection of 10 CFU/g",0 ± 0^b log10 CFU/g
same,Salmonella levels in coated kibbles,"[2]; Study 3, 0.5% (w:w) powder coating, Day 0",7.09±0.04 log10 CFU/g
same,Salmonella levels in coated kibbles,"[2]; Study 3, 0.5% (w:w) powder coating, Day 1",6.15 ± 0.11 log10 CFU/g
same,Salmonella levels in coated kibbles,"[2]; Study 3, 0.5% (w:w) powder coating, Day 2",5.87 ± 0.20 log10 CFU/g
same,Salmonella levels in coated kibbles,"[2]; Study 3, 0.5% (w:w) powder coating, Day 7, below limit of detection of 10 CFU/g",0 ± 0^b log10 CFU/g
same,Salmonella levels in coated kibbles,"[2]; Study 3, 0.5% (w:w) powder coating, Day 14, below limit of detection of 10 CFU/g",0 ± 0^b log10 CFU/g
same,Salmonella enumeration counts,"[2]; Study 3, 0.5, 0.9 and 1.5% coated kibbles, day 7",below the limit of detection
same,Salmonella levels in coated kibbles,"[2]; Study 3, 0.9% (w:w) powder coating, Day 0",7.08±0.12 log10 CFU/g
same,Salmonella levels in coated kibbles,"[2]; Study 3, 0.9% (w:w) powder coating, Day 1",6.27 ± 0.06 log10 CFU/g
same,Salmonella levels in coated kibbles,"[2]; Study 3, 0.9% (w:w) powder coating, Day 2",6.03 ± 0.05 log10 CFU/g
same,Salmonella levels in coated kibbles,"[2]; Study 3, 0.9% (w:w) powder coating, Day 7, below limit of detection of 10 CFU/g",0 ± 0^b log10 CFU/g
same,Salmonella levels in coated kibbles,"[2]; Study 3, 0.9% (w:w) powder coating, Day 14, below limit of detection of 10 CFU/g",0 ± 0^b log10 CFU/g
same,Salmonella levels in coated kibbles,"[2]; Study 3, 1.5% (w:w) powder coating, Day 0",7.04±0.13 log10 CFU/g
same,Salmonella levels in coated kibbles,"[2]; Study 3, 1.5% (w:w) powder coating, Day 1",6.24 ± 0.07 log10 CFU/g
same,Salmonella levels in coated kibbles,"[2]; Study 3, 1.5% (w:w) powder coating, Day 2",5.87 ± 0.09 log10 CFU/g
same,Salmonella levels in coated kibbles,"[2]; Study 3, 1.5% (w:w) powder coating, Day 7, below limit of detection of 10 CFU/g",0 ± 0^b log10 CFU/g
same,Salmonella levels in coated kibbles,"[2]; Study 3, 1.5% (w:w) powder coating, Day 14, below limit of detection of 10 CFU/g",0 ± 0^b log10 CFU/g
same,Salmonella enumeration counts (limit of detection),"[2]; Study 3, all treated kibbles, day 14",< 10 CFU/g
same,Attenuation of Salmonella on kibbles,"[2]; Study 3, powdered form, lower levels eliminating after 14 days, higher levels during first week",very effective
same,Salmonella growth in enriched subsamples,"[4]; Study 3, days 7 and 14 for 0.5, 0.9, 1.5%, day 14 for 0.1 and 0.3%",no Salmonella growth
"CC(C)(O)CC(=O)O [HMBFA, β-hydroxy-β-methylbutyric acid]",Salmonella levels in coated kibbles,"[2]; Study 1, 0.9% (w:w) coating, Day 0",5.59 ± 0.22 log10 CFU/g
same,Salmonella levels in coated kibbles,"[2]; Study 1, 0.9% (w:w) coating, Day 1, below limit of detection of 100 CFU/g",0.00 ± 0^b log10 CFU/g
same,Salmonella levels in coated kibbles,"[2]; Study 1, 0.9% (w:w) coating, Day 2, below limit of detection of 10 CFU/g",0.00 ± 0^c log10 CFU/g
same,Salmonella levels in coated kibbles,"[2]; Study 1, 0.9% (w:w) coating, Day 7, below limit of detection of 10 CFU/g",0.00 ± 0^c log10 CFU/g
same,Salmonella levels in coated kibbles,"[2]; Study 1, 0.9% (w:w) coating, Day 14, below limit of detection of 10 CFU/g",0.00 ± 0^c log10 CFU/g
same,Time to elimination of Salmonella inoculated onto the kibbles,"[2]; Study 1, 0.9 and 1.5% (w:w)",≤ 24 h
same,Salmonella levels in coated kibbles,"[2]; Study 1, 1.5% (w:w) coating, Day 0",4.88 ± 0.19 log10 CFU/g
same,Salmonella levels in coated kibbles,"[2]; Study 1, 1.5% (w:w) coating, Day 1, below limit of detection of 100 CFU/g",0.00 ± 0^b log10 CFU/g
same,Salmonella levels in coated kibbles,"[2]; Study 1, 1.5% (w:w) coating, Day 2, below limit of detection of 10 CFU/g",0.00 ± 0^c log10 CFU/g
same,Salmonella levels in coated kibbles,"[2]; Study 1, 1.5% (w:w) coating, Day 7, below limit of detection of 10 CFU/g",0.00 ± 0^c log10 CFU/g
same,Salmonella levels in coated kibbles,"[2]; Study 1, 1.5% (w:w) coating, Day 14, below limit of detection of 10 CFU/g",0.00 ± 0^c log10 CFU/g
same,Salmonella levels in coated kibbles,"[2]; Study 2, 0.1% (w:w) coating, Day 0",5.61±0.19 log10 CFU/g
same,Salmonella levels in coated kibbles,"[2]; Study 2, 0.1% (w:w) coating, Day 1",3.50 ± 0.12 log10 CFU/g
same,Salmonella levels in coated kibbles,"[2]; Study 2, 0.1% (w:w) coating, Day 2",2.62 ± 0.26 log10 CFU/g
same,Salmonella levels in coated kibbles,"[2]; Study 2, 0.1% (w:w) coating, Day 7",0.87 ± 0.47 log10 CFU/g
same,Salmonella levels in coated kibbles,"[2]; Study 2, 0.1% (w:w) coating, Day 14, below limit of detection of 10 CFU/g",0.00 ± 0^b log10 CFU/g
same,Salmonella levels in coated kibbles,"[2]; Study 2, 0.3% (w:w) coating, Day 0",5.62±0.06 log10 CFU/g
same,Salmonella levels in coated kibbles,"[2]; Study 2, 0.3% (w:w) coating, Day 1",2.85 ± 0.16 log10 CFU/g
same,Salmonella levels in coated kibbles,"[2]; Study 2, 0.3% (w:w) coating, Day 2",1.63 ± 0.32 log10 CFU/g
same,Salmonella levels in coated kibbles,"[2]; Study 2, 0.3% (w:w) coating, Day 7",0.67 ± 0.33 log10 CFU/g
same,Salmonella levels in coated kibbles,"[2]; Study 2, 0.3% (w:w) coating, Day 14, below limit of detection of 10 CFU/g",0.00 ± 0^b log10 CFU/g
same,Salmonella levels in coated kibbles,"[2]; Study 2, 0.5% (w:w) coating, Day 0",5.60±0.26 log10 CFU/g
same,Salmonella levels in coated kibbles,"[2]; Study 2, 0.5% (w:w) coating, Day 1",2.09 ± 0.28 log10 CFU/g
same,Salmonella levels in coated kibbles,"[2]; Study 2, 0.5% (w:w) coating, Day 2",0.93 ± 0.52 log10 CFU/g
same,Salmonella levels in coated kibbles,"[2]; Study 2, 0.5% (w:w) coating, Day 7, below limit of detection of 10 CFU/g",0.00 ± 0^b log10 CFU/g
same,Salmonella levels in coated kibbles,"[2]; Study 2, 0.5% (w:w) coating, Day 14, below limit of detection of 10 CFU/g",0.00 ± 0^b log10 CFU/g
same,Salmonella enumeration (limit of detection),"[2]; Study 2, 0.5% treatment, days 2, 7 and 14",< 10 CFU/g
same,Lowest coating level effective in eliminating the Salmonella inoculum,"[2]; Study 2, by day 14",around 0.1 % (w:w)
same,Salmonella enumeration (limit of detection),"[2]; Study 2, day 14 across all treatments",< 10 CFU/g
same,Salmonella growth in enriched subsamples,"[4]; Study 2, treatment levels below limit of detection on enumeration days 2, 7 and 14",positive
